According to patent publication US20210346354A1, “MACROPINOCYTOSIS IN CANCER” (Memorial Sloan-Kettering Cancer Center, priority 2015, published 2021):

How the values were obtained:
Format in all cases: cell-based, mouse
[1] = test system: Ulk1/2 wild type and DKO MEFs expressing K-Ras^G12V; test: DQ-BSA proteolysis in Ulk1/2 wild type and DKO MEFs expressing K-Ras^G12V; details: 250 nM torin 1; Ulk1/2 wild type versus DKO
Description: K-Ras^G12D MEFs were pre-treated for 1 h with 250 nM torin 1 and then incubated with fluorescently labeled dextran or albumin. Intracellular dextran or albumin was quantified after 30 min uptake. Data are represented as mean±STDEV (n=6 fields of view with >10 cells each). P-values were calculated using a two-tailed unpaired t-test. n.s. not significant. […] Uptake of fluorescently labeled dextran was quantified after 30 min uptake. Data are represented as mean±STDEV (n=8 fields of view with >10 cells each). P-values were calculated using a two-tailed unpaired t-test. n.s. not significant. […] K-Ras^G12D MEFs were pre-treated for 1 h with 250 nM torin 1, then incubated with fluorescently labeled dextran for indicated periods of time. Data are represented as mean±STDEV (n=8 fields of view with >10 cells each). […] Mean fluorescence intensity per cell was determined after 6 h of DQ-BSA uptake. Data are represented as mean±STDEV (n=7 fields of view with >15 cells each). P-values were calculated using a two-tailed unpaired t-test. ***p<0.001, n.s. not significant. […] DQ-BSA fluorescence intensity is represented as mean±STDEV (n=7 fields of view with >20 cells each). P-values were calculated using a two-tailed unpaired t-test. ***p<0.001. […] DQ-BSA fluorescence intensity is represented as mean±STDEV (n=6 fields of view with >30 cells each). P-values were calculated using a two-tailed unpaired t-test. […]

K-Ras^G12D MEFs [2] = test: Uptake of fluorescently labeled dextran or albumin; details: pre-treated 1 h with 250 nM torin 1; 30 min uptake
Description: To characterize how cells derive leucine from extracellular proteins, cellular albumin uptake was investigated using constitutively fluorescent albumin and intracellular albumin proteolysis using a self-quenched albumin that emits fluorescence upon degradation (DQ-BSA) (Reis et al., 1998). […] It was then determined whether lysosomal albumin degradation was required to support growth during leucine starvation. […] Ras GTPases can promote cellular uptake of macromolecules through macropinocytosis (Bar-Sagi and Feramisco, 1986). […] To investigate whether this endocytic pathway contributed to albumin-dependent growth, cells were treated with the Na^+/H^+ exchange inhibitor EIPA, which blocks macropinocytosis but not other endocytic pathways (West et al., 1989).
To distinguish these possibilities, it was first tested whether mTORC1 inhibition increased internalization of extracellular macromolecules. […] It was next examined whether mTORC1 inhibition affected lysosomal degradation of internalized proteins.

K-Ras^G12D MEFs [3] = test: 14C-leucine labeling of proteins and lipids; details: mean±STDEV (n=3); control cells 364±69
Description: Cells were cultured in full medium containing 0.5 μCi (0.4%) L-[^14C(U)]-Leucine (Perkin Elmer) for 24 h. Total lipid and protein fractions were isolated essentially according to the Blight-Dyer method (Bligh and Dyer, 1959). Protein pellets were resolubilized in 6 M guanidine hydrochloride, then transferred to scintillation fluid. Organic phase-dissolved lipids were transferred to scintillation vials, and after solvent evaporation, resuspended in scintillation fluid. ^14C-leucine content of proteins and lipids was quantified by scintillation counting.

K-Ras^G12D MEFs [4] = test: Proliferation assay (cell numbers) of K-Ras^G12D MEFs in starvation medium
Description: (§1) Cell culture experiments were performed at 37° C. and 5% CO2 in DMEM/F12 with 10% dialyzed FBS (molecular weight cut-off 10,000; Gemini Biosystems), 100 U/mL penicillin, 100 μg/mL streptomycin, 5 mM glucose and 2 mM glutamine. For proliferation assays, MEFs were plated in complete medium, 5 h later briefly rinsed and then cultured in starvation medium as indicated. For EAA titration experiments, EAAs were supplemented at indicated percentages of 1×MEM amino acid solution (M5550, Sigma). Cancer cell lines were cultured in complete medium for 1 day prior to starvation. Numbers of adherent cells, which are >95% viable as assessed by Trypan Blue exclusion were determined using a Multisizer 4 Coulter Counter (Beckman). For mTOR activation and localization experiments, cells were rinsed and then incubated in EAA starvation medium (DMEM/F12 lacking all amino acids except glutamine) for 1 h, and subsequently placed in medium supplemented with EAAs (1×MEM amino acid solution), albumin (3%, if not stated otherwise) or fresh EAA-free starvation medium for indicated periods of time.

mTORC1 = mTORC1 re-activation after 1 h EAA starvation, Western blotting against phosphorylated S6K1; details: wild type and K-Ras^G12D MEFs; EAA-free medium with 1-3% albumin; 500 nM torin 1 added at onset of EAA starvation
Description: Cells were rinsed with ice-cold PBS and detached from culture plates by incubation with ice-cold trypsin (0.05%). Trypsin was inactivated with ice-cold serum, cells pelleted and rinsed with ice cold PBS. Cells were lysed in ice-cold lysis buffer [50 mM HEPES, pH 7.4, 40 mM […], 2 mM EDTA, 1 mM Na Orthovandanate, 50 mM NaF, 10 mM Na Pyrophosphate, 10 mM Na Glycerophosphate, 1% Triton X-100, 1×Halt protease and phosphatase inhibitor cocktails (Thermo Scientific)] for 15 min, and soluble lysate fractions isolated by centrifugation at 16,000 g for 10 min. Protein concentrations were determined with the Pierce BCA Protein Assay (Thermo Scientific) and equal amounts of proteins analyzed by SDS gel electrophoresis and Western blotting following standard protocols.
as §1
Cells can sense EAAs through the mTORC1 pathway, which integrates amino acid levels with inputs from growth factor signaling to promote cell growth (Ma and Blenis, 2009; Shimobayashi and Hall, 2014). When cells are placed in EAA-free medium, the ability of mTORC1 to phosphorylate downstream targets is repressed. To test if catabolism of extracellularly provided proteins could restore mTORC1 activity in the absence of EAAs, mTORC1 was inactivated by subjecting MEFs to 1 h EAA starvation. Fresh medium containing EAAs or different concentrations of albumin was then added and mTORC1 re-activation assessed by Western blotting against phosphorylated S6K1.

For `CCC(=O)N1CCN(c2ccc(-n3c(=O)ccc4cnc5ccc(-c6cnc7ccccc7c6)cc5c43)cc2C(F)(F)F)CC1` [torin 1], the “DQ-BSA proteolysis in response to torin 1” value [1] was “comparable increase in DQ-BSA proteolysis”, the “cellular uptake of fluorescently labeled dextran or albumin” value (K-Ras^G12D MEFs [2]) was “neither torin 1 nor Raptor knockdown elevated cellular uptake” and the “ratio of protein to lipid incorporation of 14C-leucine label” value (K-Ras^G12D MEFs [3]) was 203±27. The cell proliferation (K-Ras^G12D MEFs [4]; 3% albumin, EAAs abundant extracellularly, 250 nM torin 1, day 3) was “strongly decreased cell proliferation”, the cell proliferation (K-Ras^G12D MEFs [4]; 3% albumin, low EAA concentrations, 250 nM torin 1, day 3) was “significantly improved cell proliferation” and the cell proliferation (K-Ras^G12D MEFs [4]; 3% albumin, over a 10-fold range of EAA concentrations, 250 nM torin 1) was “only slightly reduced proliferation”. The cell proliferation (K-Ras^G12D MEFs [4]; free leucine provided extracellularly, increasing doses of torin 1, day 3) was “decreased with increasing doses”, the cell proliferation (K-Ras^G12D MEFs [4]; leucine-free medium +3% albumin, torin 1 raised from 50 to 300 nM) was “progressively improved cell proliferation” and the cell proliferation (K-Ras^G12D MEFs [4]; medium lacking isoleucine, lysine or arginine, 3% albumin, 250 nM torin 1) was “induced cells to robustly proliferate”. For the same compound, the “albumin-induced S6K1 phosphorylation” value (mTORC1) was “completely suppressed”.
